# Measured values reported in patent US7138361B2, “Herbicidal heterocycles” (E. I. du Pont de Nemours and Company, priority 2000, dated 2006).
# Tests used:
# Type in all cases: in vivo
# [1] = tested on: Nightshade; assay: Test C preemergence; conditions: Rate 500 g/ha, visual evaluation after 12 to 14 days
# [2] = tested on: soybean (Glycine max); assay: Test C preemergence; conditions: preemergence; for Plant response rating (0 to 100), Soybean: Rate 500 g/ha, visual evaluation after 12 to 14 days; for Plant response rating, Soybean: scale 0 to 100, 0 no effect, 100 complete control
# Outline: (§1)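 Visual injury scores of 0–100, with 100 meaning complete control, were given relative to controls after 12–14 days in the greenhouse. Treatments used a surfactant-containing non-phytotoxic solvent formulation, sprayed on seeded pots preemergence or on 1–4-leaf plants of 2–18 cm postemergence.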
# [3] = tested on: giant foxtail (Setaria faberii); assay: Test C preemergence; conditions: for Plant response rating, Foxtail, Giant: scale 0 to 100, 0 no effect, 100 complete control; for Plant response rating (0 to 100), Foxtail, Giant: visual evaluation after 12 to 14 days
# Outline: as §1
# [4] = tested on: crabgrass (Digitaria sanguinalis); assay: Test C preemergence; conditions: for Plant response rating, Crabgrass: scale 0 to 100, 0 no effect, 100 complete control; for Plant response rating (0 to 100), Crabgrass: visual evaluation after 12 to 14 days
# Outline: as §1
# [5] = tested on: woolly cupgrass (Eriochloa villosa); assay: Test C preemergence; conditions: for Plant response rating, Cupgrass, Woolly: scale 0 to 100, 0 no effect, 100 complete control; for Plant response rating (0 to 100), Cupgrass, Woolly: visual evaluation after 12 to 14 days
# Outline: as §1
# [6] = tested on: bermudagrass (Cynodon dactylon); assay: Test C preemergence; conditions: for Plant response rating, Bermudagrass: scale 0 to 100, 0 no effect, 100 complete control; for Plant response rating (0 to 100 where 0 is no effect and 100 is complete control), Bermudagrass: visual evaluation after 12 to 14 days
# Outline: as §1
# [7] = tested on: kochia (Kochia scoparia); assay: Test C preemergence; conditions: for Plant response rating, Kochia: scale 0 to 100, 0 no effect, 100 complete control; for Plant response rating (0 to 100), Kochia: visual evaluation after 12 to 14 days
# Outline: as §1
# [8] = tested on: cocklebur (Xanthium strumarium); assay: Test C preemergence; conditions: for Plant response rating, Cocklebur: scale 0 to 100, 0 no effect, 100 complete control; for Plant response rating (0 to 100), Cocklebur: visual evaluation after 12 to 14 days
# Outline: as §1
# [9] = tested on: pigweed (Amaranthus retroflexus); assay: Test C preemergence; conditions: preemergence; for Plant response rating (0 to 100), Pigweed: Rate 500 g/ha, visual evaluation after 12 to 14 days; for Plant response rating, Pigweed: scale 0 to 100, 0 no effect, 100 complete control
# Outline: as §1
# [10] = tested on: Surinam grass (Brachiaria decumbens); assay: Test C preemergence; conditions: for Plant response rating, Surinam grass: scale 0 to 100, 0 no effect, 100 complete control; for Plant response rating (0 to 100), Surinam grass: visual evaluation after 12 to 14 days
# Outline: as §1
# [11] = tested on: giant foxtail (Setaria faberii); assay: Test B preemergence
# Outline: (§2)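 Greenhouse test: chemicals are formulated in a surfactant-containing non-phytotoxic solvent and applied either preemergence to planted seeds or postemergence to plants 2 to 18 cm tall. Response is rated visually versus controls after 13 to 15 days, 0 meaning no effect and 100 complete control.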
# [12] = tested on: crabgrass (Digitaria sanguinalis); assay: Test B preemergence
# Outline: as §2
# [13] = tested on: velvetleaf (Abutilon theophrasti); assay: Test B preemergence
# Outline: as §2
# [14] = tested on: barnyardgrass (Echinochloa crus-galli); assay: Test B preemergence
# Outline: as §2
# [15] = tested on: corn (Zea mays); assay: Test B preemergence
# Outline: as §2
# [16] = tested on: morning glory (Ipomoea hederacea); assay: Test B preemergence
# Outline: as §2
# [17] = tested on: lambsquarters (Chenopodium album); assay: Test B preemergence
# Outline: as §2
# [18] = tested on: rice (Oryza saliva); assay: Test B preemergence
# Outline: as §2
# [19] = tested on: cocklebur (Xanthium strumarium); assay: Test B preemergence
# Outline: as §2
# [20] = tested on: pigweed (Amaranthus retroflexus); assay: Test B preemergence
# Outline: as §2
# [21] = tested on: Surinam grass (Brachiaria decumbens); assay: Test B preemergence
# Outline: as §2
# [22] = tested on: Sunflower; assay: Test C preemergence; conditions: scale 0 to 100, 0 no effect, 100 complete control
# [23] = Preemergence, Rate 500 g/ha, scale 0 to 100, 0 no effect, 100 complete control
# [24] = preemergence, Rate 125 g/ha, scale of 0 to 100 where 0 is no effect and 100 is complete control, 13 to 15 days
compound,measurement,setting,value
CCC(C)c1ccn(C2OCN(c3cccc(OC(F)(F)F)c3)C2=O)n1 (stereo not shown) [Compound 67],"Plant response rating (0 to 100), Nightshade",[1],60
same,"Plant response rating (0 to 100), Soybean",[2],0
same,"Plant response rating, Soybean",[2]; Rate 125 g/ha,0
same,"Plant response rating, Soybean",[2]; Rate 250 g/ha,0
same,"Plant response rating, Foxtail, Giant",[3]; Rate 62 g/ha,100
same,"Plant response rating (0 to 100), Foxtail, Giant","[3]; preemergence, Rate 250 g/ha",70
same,"Plant response rating (0 to 100), Foxtail, Giant","[3]; preemergence, Rate 500 g/ha",100
same,"Plant response rating, Foxtail, Giant","[3]; preemergence, Rate 125 g/ha",100
same,"Plant response rating, Crabgrass",[4]; Rate 62 g/ha,100
same,"Plant response rating (0 to 100), Crabgrass","[4]; preemergence, Rate 250 g/ha",100
same,"Plant response rating (0 to 100), Crabgrass","[4]; preemergence, Rate 500 g/ha",100
same,"Plant response rating, Crabgrass","[4]; preemergence, Rate 125 g/ha",100
same,"Plant response rating, Cupgrass, Woolly",[5]; Rate 62 g/ha,90
same,"Plant response rating (0 to 100), Cupgrass, Woolly","[5]; preemergence, Rate 250 g/ha",100
same,"Plant response rating (0 to 100), Cupgrass, Woolly","[5]; preemergence, Rate 500 g/ha",100
same,"Plant response rating, Cupgrass, Woolly","[5]; preemergence, Rate 125 g/ha",70
same,"Plant response rating, Bermudagrass",[6]; Rate 62 g/ha,100
same,"Plant response rating (0 to 100 where 0 is no effect and 100 is complete control), Bermudagrass","[6]; preemergence, Rate 250 g/ha",100
same,"Plant response rating (0 to 100 where 0 is no effect and 100 is complete control), Bermudagrass","[6]; preemergence, Rate 500 g/ha",100
same,"Plant response rating, Bermudagrass","[6]; preemergence, Rate 125 g/ha",100
same,"Plant response rating, Kochia",[7]; Rate 62 g/ha,90
same,"Plant response rating (0 to 100), Kochia","[7]; preemergence, Rate 250 g/ha",90
same,"Plant response rating (0 to 100), Kochia","[7]; preemergence, Rate 500 g/ha",100
same,"Plant response rating, Kochia","[7]; preemergence, Rate 125 g/ha",100
same,"Plant response rating, Cocklebur",[8]; Rate 62 g/ha,0
same,"Plant response rating (0 to 100), Cocklebur","[8]; preemergence, Rate 250 g/ha",20
same,"Plant response rating (0 to 100), Cocklebur","[8]; preemergence, Rate 500 g/ha",50
same,"Plant response rating, Cocklebur","[8]; preemergence, Rate 125 g/ha",0
same,"Plant response rating (0 to 100), Pigweed",[9],80
same,"Plant response rating, Pigweed",[9]; Rate 125 g/ha,90
same,"Plant response rating, Pigweed",[9]; Rate 250 g/ha,80
same,"Plant response rating, Surinam grass",[10]; Rate 62 g/ha,0
same,"Plant response rating (0 to 100), Surinam grass","[10]; preemergence, Rate 250 g/ha",100
same,"Plant response rating (0 to 100), Surinam grass","[10]; preemergence, Rate 500 g/ha",100
same,"Plant response rating, Surinam grass","[10]; preemergence, Rate 125 g/ha",0
same,"Plant response rating, Foxtail, Giant",[11]; [23],40
same,"Plant response rating, Foxtail, Giant",[11]; [24],40
same,"Plant response rating, Crabgrass",[12]; [23],80
same,"Plant response rating, Crabgrass",[12]; [24],20
same,"Plant response rating, Velvetleaf",[13]; [23],0
same,"Plant response rating, Velvetleaf",[13]; [24],0
same,"Plant response rating, Barnyardgrass",[14]; [23],100
same,"Plant response rating, Barnyardgrass",[14]; [24],60
same,"Plant response rating, Corn",[15]; [23],20
same,"Plant response rating, Corn",[15]; [24],0
same,"Plant response rating, Morningglory",[16]; [23],0
same,"Plant response rating, Morningglory",[16]; [24],0
same,"Plant response rating, Lambsquarters",[17]; [23],100
same,"Plant response rating, Lambsquarters",[17]; [24],100
same,"Plant response rating, Rice",[18]; [23],40
same,"Plant response rating, Rice",[18]; [24],40
same,"Plant response rating, Cocklebur",[19]; [23],0
same,"Plant response rating, Cocklebur",[19]; [24],0
same,"Plant response rating, Pigweed",[20]; [23],100
same,"Plant response rating, Pigweed",[20]; [24],100
same,"Plant response rating, Surinam grass",[21]; [23],50
same,"Plant response rating, Surinam grass",[21]; [24],20
same,"Plant response rating, Sunflower",[22]; Rate 125 g/ha,0
same,"Plant response rating, Sunflower",[22]; Rate 250 g/ha,0
COc1cc(OC)cc(N2CCC(n3ccc(C(C)(C)C)n3)C2=O)c1 (stereo not shown) [Compound 71],"Plant response rating (0 to 100), Nightshade",[1],30
same,"Plant response rating (0 to 100), Soybean",[2],0
same,"Plant response rating, Soybean",[2]; Rate 125 g/ha,0
same,"Plant response rating, Soybean",[2]; Rate 250 g/ha,0
same,"Plant response rating, Foxtail, Giant",[3]; Rate 62 g/ha,0
same,"Plant response rating (0 to 100), Foxtail, Giant","[3]; preemergence, Rate 250 g/ha",0
same,"Plant response rating (0 to 100), Foxtail, Giant","[3]; preemergence, Rate 500 g/ha",100
same,"Plant response rating, Foxtail, Giant","[3]; preemergence, Rate 125 g/ha",90
same,"Plant response rating, Crabgrass",[4]; Rate 62 g/ha,40
same,"Plant response rating (0 to 100), Crabgrass","[4]; preemergence, Rate 250 g/ha",100
same,"Plant response rating (0 to 100), Crabgrass","[4]; preemergence, Rate 500 g/ha",100
same,"Plant response rating, Crabgrass","[4]; preemergence, Rate 125 g/ha",100
same,"Plant response rating, Cupgrass, Woolly",[5]; Rate 62 g/ha,0
same,"Plant response rating (0 to 100), Cupgrass, Woolly","[5]; preemergence, Rate 250 g/ha",100
same,"Plant response rating (0 to 100), Cupgrass, Woolly","[5]; preemergence, Rate 500 g/ha",100
same,"Plant response rating, Cupgrass, Woolly","[5]; preemergence, Rate 125 g/ha",80
same,"Plant response rating, Bermudagrass",[6]; Rate 62 g/ha,30
same,"Plant response rating (0 to 100 where 0 is no effect and 100 is complete control), Bermudagrass","[6]; preemergence, Rate 250 g/ha",100
same,"Plant response rating (0 to 100 where 0 is no effect and 100 is complete control), Bermudagrass","[6]; preemergence, Rate 500 g/ha",100
same,"Plant response rating, Bermudagrass","[6]; preemergence, Rate 125 g/ha",90
same,"Plant response rating, Kochia",[7]; Rate 62 g/ha,80
same,"Plant response rating (0 to 100), Kochia","[7]; preemergence, Rate 250 g/ha",100
same,"Plant response rating (0 to 100), Kochia","[7]; preemergence, Rate 500 g/ha",100
same,"Plant response rating, Kochia","[7]; preemergence, Rate 125 g/ha",90
same,"Plant response rating, Cocklebur",[8]; Rate 62 g/ha,0
same,"Plant response rating (0 to 100), Cocklebur","[8]; preemergence, Rate 250 g/ha",30
same,"Plant response rating (0 to 100), Cocklebur","[8]; preemergence, Rate 500 g/ha",30
same,"Plant response rating, Cocklebur","[8]; preemergence, Rate 125 g/ha",0
same,"Plant response rating (0 to 100), Pigweed",[9],100
same,"Plant response rating, Pigweed",[9]; Rate 125 g/ha,0
same,"Plant response rating, Pigweed",[9]; Rate 250 g/ha,100
same,"Plant response rating, Surinam grass",[10]; Rate 62 g/ha,30
same,"Plant response rating (0 to 100), Surinam grass","[10]; preemergence, Rate 250 g/ha",50
same,"Plant response rating (0 to 100), Surinam grass","[10]; preemergence, Rate 500 g/ha",90
same,"Plant response rating, Surinam grass","[10]; preemergence, Rate 125 g/ha",30
same,"Plant response rating, Foxtail, Giant",[11]; [23],100
same,"Plant response rating, Foxtail, Giant",[11]; [24],90
same,"Plant response rating, Crabgrass",[12]; [23],100
same,"Plant response rating, Crabgrass",[12]; [24],50
same,"Plant response rating, Velvetleaf",[13]; [23],30
same,"Plant response rating, Velvetleaf",[13]; [24],0
same,"Plant response rating, Barnyardgrass",[14]; [23],90
same,"Plant response rating, Barnyardgrass",[14]; [24],10
same,"Plant response rating, Corn",[15]; [23],20
same,"Plant response rating, Corn",[15]; [24],0
same,"Plant response rating, Morningglory",[16]; [23],0
same,"Plant response rating, Morningglory",[16]; [24],0
same,"Plant response rating, Lambsquarters",[17]; [23],100
same,"Plant response rating, Lambsquarters",[17]; [24],100
same,"Plant response rating, Rice",[18]; [23],40
same,"Plant response rating, Rice",[18]; [24],20
same,"Plant response rating, Cocklebur",[19]; [23],0
same,"Plant response rating, Cocklebur",[19]; [24],0
same,"Plant response rating, Pigweed",[20]; [23],100
same,"Plant response rating, Pigweed",[20]; [24],100
same,"Plant response rating, Surinam grass",[21]; [23],40
same,"Plant response rating, Surinam grass",[21]; [24],40
same,"Plant response rating, Sunflower",[22]; Rate 125 g/ha,0
same,"Plant response rating, Sunflower",[22]; Rate 250 g/ha,0
